The subject of the test is BDF1 mice, P388 leukemia ip, median survival T/C. As to the kind of experiment: NCI In Vivo Anticancer Drug Screen. Data for tumor model P388 Leukemia (intraperitoneal) in B6D2F1 (BDF1) mice. The settings on record: endpoint: median survival time, higher = longer survival. The method in brief:
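In tumour-bearing mice, survival after compound treatment is set against the vehicle group and given as a quotient.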

The mark [1] stands for this setting: dose: 100.0 mg/kg/injection, schedule: Q04DX003 (ip), vehicle: Klucel (hydroxypropylcellulose) (HPC).
Where [2] appears, read: dose: 200.0 mg/kg/injection, schedule: Q04DX003 (ip), vehicle: Klucel (hydroxypropylcellulose) (HPC).
Setting [3] is: dose: 400.0 mg/kg/injection, schedule: Q04DX003 (ip), vehicle: Klucel (hydroxypropylcellulose) (HPC).
Where [4] appears, read: dose: 100.0 mg/kg/injection, schedule: Q04DX003 (ip), vehicle: saline with Tween-80.
[5] abbreviates: dose: 200.0 mg/kg/injection, schedule: Q04DX003 (ip), vehicle: saline with Tween-80.
[6] abbreviates: dose: 25.0 mg/kg/injection, schedule: Q04DX003 (ip), vehicle: Klucel (hydroxypropylcellulose) (HPC).
Setting [7] is: dose: 50.0 mg/kg/injection, schedule: Q01DX009 (ip), vehicle: Klucel (hydroxypropylcellulose) (HPC).
Where [8] appears, read: dose: 50.0 mg/kg/injection, schedule: Q01DX009 (ip), vehicle: saline with Tween-80.
[9] abbreviates: dose: 100.0 mg/kg/injection, schedule: Q01DX009 (ip), vehicle: Klucel (hydroxypropylcellulose) (HPC).
[10] abbreviates: dose: 100.0 mg/kg/injection, schedule: Q01DX009 (ip), vehicle: saline with Tween-80.
The mark [11] stands for this setting: dose: 200.0 mg/kg/injection, schedule: Q01DX009 (ip), vehicle: saline with Tween-80.
Where [12] appears, read: dose: 100.0 mg/kg/injection, schedule: Q01DX001 (ip), vehicle: Klucel (hydroxypropylcellulose) (HPC).
The mark [13] stands for this setting: dose: 200.0 mg/kg/injection, schedule: Q01DX001 (ip), vehicle: Klucel (hydroxypropylcellulose) (HPC).
The mark [14] stands for this setting: dose: 400.0 mg/kg/injection, schedule: Q01DX001 (ip), vehicle: Klucel (hydroxypropylcellulose) (HPC).

The structures appear in SMILES notation. Inconclusive results and toxic doses are left out.

`CCCCN(CCCC)c1ccc([N+](=O)[O-])c2no[n+]([O-])c12`: the T/C by setting is: (dose: 15.0 mg/kg/injection, schedule: Q01DX009 (ip), vehicle: saline with Tween-80) 96 % of control; (dose: 30.0 mg/kg/injection, schedule: Q01DX009 (ip), vehicle: saline with Tween-80) 92 % of control; (dose: 60.0 mg/kg/injection, schedule: Q01DX009 (ip), vehicle: saline with Tween-80) 91 % of control.
In the case of `CSc1nc(Cl)c(Br)c(Sc2nc(N)nc3nc[nH]c23)n1`, where the note is “dose: 132.0 mg/kg/injection, schedule: Q04DX003 (ip), vehicle: saline with Tween-80”, the T/C was 120 % of control.
As for `O=C(c1ccccc1)C1C(c2ccccc2)N1CCl` (stereo unspecified), the T/C under setting [1] was 113 % of control, the T/C under setting [2] was 100 % of control and the T/C under setting [3] was 100 % of control.
In the case of `COc1cc(/C=C(/C)[N+](=O)[O-])cc(Br)c1OC`, the T/C under setting [4] was 117 % of control.
In the case of `O=c1c2ccc(Cl)cc2[nH]c2ccc(Cl)cc12`, the T/C was 103 % of control (dose: 25.0 mg/kg/injection, schedule: Q04DX003 (ip), vehicle: saline with Tween-80); 100 % of control (dose: 50.0 mg/kg/injection, schedule: Q04DX003 (ip), vehicle: saline with Tween-80); 99 % of control under setting [4].
Consider `Oc1cc(OCCCc2ccc(F)cc2)cc2ccc3ccccc3c12`, for which the T/C under setting [4] is 112 % of control and the T/C under setting [5] was 86 % of control.
In the case of `O=C(NCCCCN1CC1)C(=O)NCCCCN1CC1`, the T/C reads like this: (dose: 6.25 mg/kg/injection, schedule: Q04DX003 (ip), vehicle: Klucel (hydroxypropylcellulose) (HPC)) 188 % of control; (dose: 12.5 mg/kg/injection, schedule: Q04DX003 (ip), vehicle: Klucel (hydroxypropylcellulose) (HPC)) 188 % of control; under setting [6], 221 % of control.
As for `COC(=O)/C(=N\NS(=O)(=O)c1ccc(C)cc1)c1ccccc1`, the T/C is 98 % of control under setting [6]; 100 % of control (dose: 50.0 mg/kg/injection, schedule: Q04DX003 (ip), vehicle: Klucel (hydroxypropylcellulose) (HPC)); 94 % of control under setting [1]; 93 % of control under setting [2].
`O=C(Cc1ccccc1)OCCc1ccccc1`: the T/C was 109 % of control (dose: 12.5 mg/kg/injection, schedule: Q01DX009 (ip), vehicle: Klucel (hydroxypropylcellulose) (HPC)); 109 % of control (dose: 25.0 mg/kg/injection, schedule: Q01DX009 (ip), vehicle: Klucel (hydroxypropylcellulose) (HPC)); 95 % of control under setting [7]; 109 % of control under setting [1]; 100 % of control under setting [2]; 100 % of control under setting [3].
On to `CCN/C(C)=C\C(=O)OCC`, for which the T/C was 95 % of control under setting [8]; 122 % of control under setting [9]; 100 % of control under setting [10]; 100 % of control under setting [1]; 111 % of control (dose: 200.0 mg/kg/injection, schedule: Q01DX009 (ip), vehicle: Klucel (hydroxypropylcellulose) (HPC)); 117 % of control under setting [11]. Moreover, the T/C runs as follows: under setting [2], 100 % of control; (dose: 266.0 mg/kg/injection, schedule: Q01DX009 (ip), vehicle: Klucel (hydroxypropylcellulose) (HPC)) 99 % of control; (dose: 400.0 mg/kg/injection, schedule: Q01DX009 (ip), vehicle: Klucel (hydroxypropylcellulose) (HPC)) 99 % of control; (dose: 400.0 mg/kg/injection, schedule: Q01DX009 (ip), vehicle: saline with Tween-80) 111 % of control; under setting [3], 100 % of control.
For the compound `CN1C2Oc3ccccc3C1Oc1ccccc12`, the T/C by setting is: under setting [8], 112 % of control; under setting [10], 99 % of control; under setting [11], 99 % of control.
For `CCCCCCCCCCCCCCCCNCCO`, the T/C under setting [7] is 110 % of control and the T/C under setting [9] is 112 % of control.
`COc1ccc(N2CSC(=S)N(c3ccc(OC)cc3)C2)cc1`: the T/C was 100 % of control under setting [12]; 95 % of control under setting [1]; 87 % of control (dose: 100.0 mg/kg/injection, schedule: Q04DX003 (ip), vehicle: saline); 87 % of control under setting [13]; 91 % of control under setting [2]; 95 % of control under setting [14]. Moreover, the T/C is 104 % of control under setting [3] and 100 % of control (dose: 400.0 mg/kg/injection, schedule: Q04DX003 (ip), vehicle: saline).
Consider `O=C(CCNC(=O)OCc1ccccc1)NC(CSCc1ccccc1)C(=O)O` (stereo unspecified), for which the T/C by setting is: (dose: 12.5 mg/kg/injection, schedule: Q04DX003 (ip), vehicle: water) 112 % of control; (dose: 25.0 mg/kg/injection, schedule: Q04DX003 (ip), vehicle: water) 118 % of control; (dose: 50.0 mg/kg/injection, schedule: Q04DX003 (ip), vehicle: water) 114 % of control; (dose: 100.0 mg/kg/injection, schedule: Q04DX003 (ip), vehicle: water) 105 % of control; (dose: 200.0 mg/kg/injection, schedule: Q04DX003 (ip), vehicle: water) 103 % of control.
For the compound `CCOC(=O)CCCc1ccc(N=NN(C)C)cc1`, the T/C (dose: 150.0 mg/kg/injection, schedule: Q04DX003 (ip), vehicle: saline) was 95 % of control.
As to `CC(=O)N(C(C)=O)c1ccc(N=Nc2ccccc2C)cc1C`, the T/C is, setting by setting: under setting [8], 90 % of control; under setting [10], 90 % of control; under setting [4], 95 % of control; under setting [11], 86 % of control; under setting [5], 100 % of control; (dose: 400.0 mg/kg/injection, schedule: Q04DX003 (ip), vehicle: saline with Tween-80) 100 % of control.
Take `CCOC(=O)/C=C(C)/C=C/C=C(C)/C=C/c1c(C)cc(OC)c(C)c1C`: the T/C by setting is: under setting [8], 96 % of control; under setting [10], 91 % of control; under setting [11], 98 % of control.
As to `O=C(CC(c1ccccc1)C1CCCN(c2ccccc2)S1(=O)=O)c1ccccc1` (stereo unspecified), the T/C runs as follows: under setting [8], 109 % of control; under setting [10], 114 % of control; under setting [11], 97 % of control.
With `Cc1c(CO)[nH]c(=S)[nH]c1=O`, the T/C is 90 % of control under setting [12], 104 % of control under setting [13] and 95 % of control under setting [14].

The values are drawn from PubChem BioAssay AID328 (DTP/NCI, 2004).
